The values that follow come from patent US20220274961A1, “SUBSTITUTED FUSED BI- OR TRI- HETEROCYCLIC COMPOUNDS AS EHMT2 INHIBITORS” (priority 2016, published 2022).

The term IC50 denotes the midpoint of a concentration-inhibition curve.

This test has as its target T1, EHMT2 (Homo sapiens, UniProt Q96KQ7).
T1 construct: endogenous in cells; host or cells: MDA-MB-231 (ATCC)
T1 sequence (Q96KQ7 1-1210): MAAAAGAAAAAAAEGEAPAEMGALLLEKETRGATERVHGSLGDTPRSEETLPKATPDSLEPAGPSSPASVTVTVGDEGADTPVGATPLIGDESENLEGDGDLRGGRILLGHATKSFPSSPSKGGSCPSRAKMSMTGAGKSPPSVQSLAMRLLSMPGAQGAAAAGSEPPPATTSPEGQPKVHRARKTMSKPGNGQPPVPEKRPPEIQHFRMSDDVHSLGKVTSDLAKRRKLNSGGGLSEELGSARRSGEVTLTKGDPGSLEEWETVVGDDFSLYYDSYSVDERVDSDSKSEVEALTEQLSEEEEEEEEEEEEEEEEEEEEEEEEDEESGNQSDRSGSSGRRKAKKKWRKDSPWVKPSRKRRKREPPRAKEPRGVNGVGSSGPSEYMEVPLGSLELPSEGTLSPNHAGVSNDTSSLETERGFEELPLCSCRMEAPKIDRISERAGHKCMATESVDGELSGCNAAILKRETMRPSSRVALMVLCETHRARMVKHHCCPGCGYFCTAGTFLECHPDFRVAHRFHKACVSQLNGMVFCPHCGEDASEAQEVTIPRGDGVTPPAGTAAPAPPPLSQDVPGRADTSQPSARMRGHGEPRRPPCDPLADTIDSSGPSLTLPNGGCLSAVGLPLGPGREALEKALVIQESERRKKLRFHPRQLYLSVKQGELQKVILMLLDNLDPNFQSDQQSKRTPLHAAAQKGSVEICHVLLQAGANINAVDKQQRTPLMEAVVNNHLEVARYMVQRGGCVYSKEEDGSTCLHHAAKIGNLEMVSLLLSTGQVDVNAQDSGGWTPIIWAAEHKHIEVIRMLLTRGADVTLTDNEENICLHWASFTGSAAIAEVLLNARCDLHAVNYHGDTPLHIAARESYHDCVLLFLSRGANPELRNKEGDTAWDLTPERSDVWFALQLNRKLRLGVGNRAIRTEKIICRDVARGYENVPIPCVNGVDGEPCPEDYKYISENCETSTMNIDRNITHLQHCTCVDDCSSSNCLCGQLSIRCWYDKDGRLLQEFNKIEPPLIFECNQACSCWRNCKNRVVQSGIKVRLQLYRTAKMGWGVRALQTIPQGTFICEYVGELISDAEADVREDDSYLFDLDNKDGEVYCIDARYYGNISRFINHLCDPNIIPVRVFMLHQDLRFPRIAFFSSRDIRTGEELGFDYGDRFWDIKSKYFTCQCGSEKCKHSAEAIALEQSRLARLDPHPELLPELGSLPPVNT
Nature of the test: MDA-MB-231 H3K9me2 in-cell Western assay (EHMT2 ICW). The format is cell-based. The settings on record: MDA-MB-231 cells, H3K9me2 in-cell Western; read-out: EHMT2 ICW (IC50 μM). From the text: MDA-MB-231 cell line was purchased from ATCC (Manassas, Va., USA). RPMI/Glutamax medium, Penicillin-Streptomycin, Heat Inactivated Fetal Bovine Serum, and D-PBS were purchased from Life Technologies (Grand Island, N.Y., USA). Odyssey blocking buffer, 800CW goat anti-mouse IgG (H+L) antibody, and Licor Odyssey Infrared Scanner were purchased from Licor Biosciences, Lincoln, Nebr., USA. H3K9me2 mouse monoclonal antibody (Cat #1220) was purchased from Abcam (Cambridge, Mass., USA). 16% Paraformaldehyde was purchased from Electron Microscopy Sciences, Hatfield, Pa., USA). MDA-MB-231 cells were maintained in complete growth medium (RPMI supplemented with 10% v/v heat inactivated fetal bovine serum) and cultured at 37° C. under 5% CO2. UNC0638 was purchased from Sigma-Aldrich (St. Louis, Mo., USA).
General Procedure for MDA-MB-231 HEK9me2 in-cell Western Assay. Compound (100 nL) was added directly to 384-well cell plate. MDA-MB-231 cells (ATCC) were seeded in assay medium (RPMI/Glutamax supplemented with 10% v/v heat inactivated fetal bovine serum and 1% Penicillin/Streptomycin, Life Technologies) at a concentration of 3,000 cells per well to a Poly-D-Lysine coated 384-well cell culture plate with 50 μL per well. Plates were incubated at 37° C., 5% CO2 for 48 hours (BD Biosciences 356697). Plates were incubated at room temperature for 30 minutes and then incubated at 37° C., 5% CO2 for additional 48 hours. After the incubation, 50 μL per well of 8% paraformaldehyde (Electron Microscopy Sciences) in PBS was added to the plates and incubated at room temperature for 20 minutes. Plates were transferred to a Biotek 406 plate washer and washed 2 times with 100 μL per well of wash buffer (1×PBS containing 0.3% Triton X-100 (v/v)). Next, 60 μL per well of Odyssey blocking buffer (Licor Biosciences) was added to each plate and incubated for 1 hour at room temperature. Blocking buffer was removed and 20 μL of monoclonal primary antibody α-H3K9me2 (Abcam) diluted 1:800 in Odyssey buffer with 0.1% Tween 20 (v/v) were added and plates were incubated overnight (16 hours) at 4° C. Plates were washed 5 times with 100 μL per well of wash buffer. Next 20 μL per well of secondary antibody was added (1:500 800CW donkey anti-mouse IgG (H+L) antibody (Licor Biosciences), 1:1000 DRAQ5 (Cell Signaling Technology) in Odyssey buffer with 0.1% Tween 20 (v/v)) and incubated for 1 hour at room temperature. The plates were washed 5 times with […] wash buffer then 2 times with 100 μL per well of water. Plates were allowed to dry at room temperature then imaged on a Licor Odyssey Infrared Scanner (Licor Biosciences) which measured integrated intensity at 700 nm and 800 nm wavelengths. Both 700 and 800 channels were scanned.
% Inhibition Calculation. First, the ratio for each well was determined by:
Each plate included fourteen control wells of DMSO only treatment (Minimum Inhibition) as well as fourteen control wells (background wells) for maximum inhibition treated with control compound UNC0638 (Background wells).
The average of the ratio values for each well was calculated and used to determine the percent inhibition for each test well in the plate. Control compound was serially diluted three-fold in DMSO for a total of 10 test concentrations beginning at 1 μM. Percent inhibition was calculated as: […]
IC50 curves were generated using triplicate wells per concentration of compound. The IC50 is the concentration of compound at which measured methylation is inhibited by 50% as interpolated from the dose response curves. IC50 values were calculated using a non-linear regression (variable slope-four parameter fit model) with by the following formula:
where Top is fixed at 100% and Bottom is fixed to 0%, [I]=concentration of inhibitor, IC50=half maximal inhibitory concentration, and n=Hill Slope.
In the case of `CCNc1nc2cc(OCCCN3CCCC3)c(OC)cc2n1CC` [Compound 39], the IC50 lay within 0.1 to 1 µM.

Regarding `CNc1nc2cc(CNCCN3CCCC3)c(OC)cc2n1C(C)C` [Compound 40], the IC50 fell in the range of 1 to 10 µM.

With `CCn1c(NC)nc2cc(CNCCN3CCCC3)c(OC)cc21` [Compound 41], the IC50 lay in the range of 0.1 to 1 µM.

`CCn1c(NC)nc2cc(OCCCN3CCCC3)c(OC)cc21` [Compound 42]: the IC50 is under 0.1 µM.

Take `CNC1=Nc2cc(CNCCN3CCCC3)c(OC)cc2C12CCC2` [Compound 70]: the IC50 fell in the range of 0.1 to 1 µM.

Consider `CCNC1=Nc2cc(CNCCN3CCCC3)c(OC)cc2C12CCC2` [Compound 71], for which the IC50 was in the range of 1 to 10 µM.

`CCNC1=Nc2cc(CNCCN3CCC3)c(OC)cc2C12CCC2` [Compound 72]: the IC50 lay in the range of 1 to 10 µM.

For `CCCNC1=Nc2cc(CNCCN3CCCC3)c(OC)cc2C12CCC2` [Compound 73], the IC50 lay within 0.1 to 1 µM.

For the molecule `CNC1=Nc2cc(C#CCN3CCCC3)c(OC)cc2C12CCC2` [Compound 74], the IC50 is under 0.1 µM.

Consider `CNC1=Nc2cc(C#CCN3CCCCC3)c(OC)cc2C12CCC2` [Compound 75, 5′-methoxy-N-methyl-6′-(3-(piperidin-1-yl)prop-1-yn-1-yl)spiro[cyclobutane-1,3′-indol]-2′-amine], for which the IC50 is under 0.1 µM.

Take `COc1cc2c(cc1CNCCN1CCCC1)N=C(NC1CCOCC1)C21CCC1` [Compound 76]: the concentration for half-maximal inhibition (IC50) was in the range of 1 to 10 µM.

Consider `CNC1=Nc2cc(C#CC(C)N3CCCC3)c(OC)cc2C12CCC2` (stereo not shown) [Compound 84], for which the IC50 was 0.1 to 1 µM.

Consider `CNC1=Nc2cc(C#C[C@H](C)N3CCCC3)c(OC)cc2C12CCC2` [Compound 85], for which the IC50 is under 0.1 µM.

For `CNC1=Nc2cc(C#C[C@@H](C)N3CCCC3)c(OC)cc2C12CCC2` [Compound 86], the IC50 was 0.1 to 1 µM.

Regarding `CNC1=Nc2cc(C#CC(C)N3CCCCC3)c(OC)cc2C12CCC2` (stereo not shown) [Compound 92], the IC50 lay within 0.1 to 1 µM.

In the case of `COCCNC1=Nc2cc(C#CCN3CCCCC3)c(OC)cc2C12CCC2` [Compound 99], the 50% inhibitory concentration (IC50) lay within 0.1 to 1 µM.

As for `CNC1=Nc2cc(C#CCN3CCC(F)C3)c(OC)cc2C12CCC2` (stereo not shown) [Compound 100], the IC50 lay in the range of 1 to 10 µM.

For `CNc1nc2cc(CNCCN3CCCC3)c(Cl)cc2n1C(C)C` [Compound 138], the IC50 was 1 to 10 µM.

`CNc1nc2cc(CNCCN3CCCC3)c(C)cc2n1C(C)C` [Compound 139]: the IC50 was in the range of 1 to 10 µM.
